“And” between values parts separate entries of the source, which are not always exact repeats. Equal entries are not always repeated. Where two headings read alike, the source gives them in different places.
Experiments:
[1] = biological target: rRyR1 (Oryctolagus cuniculus, UniProt P11716); assay: time-lapse [Ca2+]ER fluorescence assay, HEK293 cells; type: cell-based, rabbit
[2] = biological target: Sf RyR (Spodoptera frugiperda, UniProt A0A4P8L6R5); assay: as above; type: cell-based
[3] = biological target: T1, chiRyR (Oryctolagus cuniculus, UniProt P11716, C4657I/F4564Y/L4792S/R4563K); assay: cell-based; parameters: species or system rabbit
[4] = biological target: T1, chiRyR; assay: biochemical; type: biochemical, rabbit
[5] = biological target: chiRyR-I4657M/G4819E (Oryctolagus cuniculus, UniProt P11716, C4657M/F4564Y/G4819E/L4792S/R4563K); assay: biochemical; type: biochemical, rabbit; details: for [3H]ryanodine binding (B/Bmax): 1 μM TET
[6] = Ca2+-dependent [3H]ryanodine binding, mean ± SD, n=4
[7] = Ca2+-dependent [3H]ryanodine binding, mean ± SD, n=4, read-out: EC50 values for Ca2+

## CNC(=O)c1cc(C#N)cc(C)c1NC(=O)c1cc(Cn2nnc(C(F)(F)F)n2)nn1-c1ncccc1Cl [TET, tetraniliprole]
[1]; TET 0.01 uM
  F/F0: 0.9832 and 0.9899 and 0.9753
[1]; TET 0.1 uM
  F/F0: 0.9793 and 0.9852 and 0.9641
[1]; TET 0.3 uM
  F/F0: 0.9696 and 0.952 and 0.9539
[1]; TET 1 uM
  F/F0: 0.9135 and 0.9295 and 0.9254
[1]; TET 3 uM
  F/F0: 0.8107 and 0.8058 and 0.7756
[1]; TET 10 uM
  F/F0: 0.34 and 0.3602 and 0.3556
[1]; TET 30 uM
  F/F0: 0.3168 and 0.2562 and 0.2448
[1]; TET 100 uM
  F/F0: 0.2045 and 0.2471 and 0.2529
[1]; diamide insecticides, n = 3, read-out: EC50
  EC50: 7.6 µM
[2]
  EC50: 0.175 µM
[2]; TET 1e-5 uM
  F/F0: 0.9606 and 0.9752 and 0.9813
[2]; TET 0.001 uM
  F/F0: 1.004 and 1.002 and 1.001
[2]; TET 0.01 uM
  F/F0: 0.3097 and 0.3094 and 0.2868
[2]; TET 0.1 uM
  F/F0: 0.2582 and 0.2663 and 0.2776
[2]; TET 0.5 uM
  F/F0: 0.268 and 0.2944 and 0.2596
[2]; TET 1 uM
  F/F0: 0.2734 and 0.2934 and 0.2867
[2]; TET 10 uM
  F/F0: 0.2774 and 0.2809 and 0.2932
[2]; TET 50 uM
  F/F0: 0.2939 and 0.2698 and 0.3129
[3]
  EC50: 0.0461 µM
[3]; TET 1e-5 uM
  F/F0: 0.9259 and 0.9674 and 0.9677
[3]; TET 0.001 uM
  F/F0: 0.7877 and 0.806 and 0.7759
[3]; TET 0.01 uM
  F/F0: 0.2917 and 0.2699 and 0.2537
[3]; TET 0.1 uM
  F/F0: 0.2632 and 0.2374 and 0.2313
[3]; TET 0.5 uM
  F/F0: 0.2569 and 0.2462 and 0.2329
[3]; TET 1 uM
  F/F0: 0.2399 and 0.24 and 0.2303
[3]; TET 10 uM
  F/F0: 0.2639 and 0.2436 and 0.2393
[3]; TET 50 uM
  F/F0: 0.3123 and 0.2617 and 0.3022
[4]
  EC50: 0.0111 ± 0.0009 µM
[4]; 1 μM TET
  promotion of [3H]ryanodine binding: promote
[4]; 1 μM TET, pCa 2.01
  [3H]ryanodine binding (B/Bmax): 0.5896 and 0.5427 and 0.6286 and 0.5623
[4]; 1 μM TET, pCa 2.54
  [3H]ryanodine binding (B/Bmax): 0.4881 and 0.5388 and 0.5232 and 0.4217
[4]; 1 μM TET, pCa 3.01
  [3H]ryanodine binding (B/Bmax): 0.2889 and 0.3787 and 0.4022 and 0.2616
[4]; 1 μM TET, pCa 3.52
  [3H]ryanodine binding (B/Bmax): 0.2967 and 0.3397 and 0.4256 and 0.2811
[4]; 1 μM TET, pCa 3.89
  [3H]ryanodine binding (B/Bmax): 0.2811 and 0.328 and 0.3319 and 0.2616
[4]; 1 μM TET, pCa 4.5
  [3H]ryanodine binding (B/Bmax): 0.2889 and 0.2655 and 0.3319 and 0.285
[4]; 1 μM TET, pCa 5
  [3H]ryanodine binding (B/Bmax): 0.3163 and 0.2538 and 0.3046 and 0.2694
[4]; 1 μM TET, pCa 5.43
  [3H]ryanodine binding (B/Bmax): 0.3436 and 0.285 and 0.2889 and 0.367
[4]; 1 μM TET, pCa 6.01
  [3H]ryanodine binding (B/Bmax): 0.2772 and 0.2421 and 0.3319 and 0.3085
[4]; 1 μM TET, pCa 6.55
  [3H]ryanodine binding (B/Bmax): 0.3358 and 0.246 and 0.3826
[4]; 1 μM TET, pCa 6.98
  [3H]ryanodine binding (B/Bmax): 0.2616 and 0.2694 and 0.2382 and 0.2108
[5]
  EC50: 87.8 ± 6.4 µM
[5]; pCa 3.52
  [3H]ryanodine binding (B/Bmax): 0.1264 and 0.1119 and 0.1409 and 0.1015
[5]; pCa 3.89
  [3H]ryanodine binding (B/Bmax): 0.1367 and 0.1222 and 0.1015
[5]; pCa 4.5
  [3H]ryanodine binding (B/Bmax): 0.1326 and 0.1367 and 0.1347 and 0.1885
[5]; pCa 5
  [3H]ryanodine binding (B/Bmax): 0.172 and 0.0953 and 0.1139 and 0.1243
[5]; pCa 5.43
  [3H]ryanodine binding (B/Bmax): 0.04765 and 0.0663 and 0.05179 and 0.06008

## [Ca+2] [Ca2+]
[4]; [6]
  IC50: 670 ± 370 µM
[4]; [7]
  EC50: 5 ± 1.1 µM
[5]; [6]
  IC50: 590 ± 190 µM
[5]; [7]
  EC50: 4.4 ± 2.4 µM
